The record followed here is patent US9714245B2, “Carboline compounds usable in the treatment of neurodegenerative diseases” (ALZPROTECT, priority 2013, dated 2017).

Series [1] is described as follows: Cytotoxicity evaluation (MTS assay). Conditions: human, SY5Y-APPWT neuroblastoma cells (expressing APP); SY5Y-APPWT cells, 24 h treatment, MTS. In kind it is cell-based, Human. The method, then:
Human neuroblastoma cell line SY5Y-APP^WT was used to assess the cytotoxic effects of each compound. SY5Y-APP^WT cells were seeded at 20000 cells/well onto 96-well plates and were cultured in Dulbecco's modified Eagle medium (DMEM, Invitrogen) supplemented with 10% fetal calf serum (PAA), 2 mM L-glutamine (Invitrogen), 1 mM non-essential amino acids (Invitrogen), 50 units/ml penicillin/streptomycin (Invitrogen), and 200 μg G418=geneticin (Invitrogen) (selection for cells expressing APP) in a 5% CO2 humidified incubator at 37° C. After 24 h, the cells were washed and incubated with the compound at 0.1; 0.3; 1; 3; 10; 30 and 100 μM or with DMSO as control diluted in the same culture medium at 37° C. in 5% CO2. After 24 h of treatment, cytotoxicity was determined by using colorimetric MTS assay (CellTiter 96® Aqueous One Solution Cell Proliferation Assay-MTS Promega) according to the protocol of the manufacturer. Absorbance was read at 490 nm and results were expressed as % from control condition considered as 100%.
For orientation: Formazan colour is commonly taken as a measure of viable cells.

The test system of the next series is sAPPα. The series is described as follows: Soluble APPα quantification (ELISA). In kind it is cell-based, Human. Conditions: 24 h, control considered as 100. How it is done: Soluble APPα Quantification
Human neuroblastoma cell line SKNSH-SYSY APP′ was cultured in Dulbecco's modified Eagle medium (Invitrogen) supplemented with 10% fetal calf serum (PAA), 2 mM L-glutamine (Invitrogen), 1 mM non-essential amino acids (Invitrogen), 50 units/ml penicillin/streptomycin (Invitrogen), and 200 μg G418=geneticin (Invitrogen) (selection for cell expressing APP) in a 5% CO2 humidified incubator at 37° C. Cells were counted and seed at 400000 cells/well into a 12-wells plate for 24 h. The day after, cells were treated with 700 μL/well of drug at 0.3; 1; 3 and 10 μM and incubated for 24 h in a 5% CO2 incubator at 37° C. After treatment, culture medium samples were collected and stored at −80° C. until analysis. Samples corresponding to the 1 and 10 μM treatment were centrifuged 1500 rpm for 5 min at 4° C. sAPPα quantification by ELISA was done with Human sAPPα Assay Kit-IBL (Cat#27734) in accordance with manufacturer's protocol. Samples were diluted at 1:150 in the diluent buffer provided in the kit. Each sample was loaded in duplicate onto the 96 well-plate. Results are expressed in ng/ml and then compared to control conditions (considered as 100 in arbitrary units) and are presented for two concentrations of the drug: 1 and 10 μM.

As a reminder, the CC50 is the concentration that lowers cell viability or growth by half.

As to `CC(C)CN(CCCN1CCN(CCCN2CCc3[nH]c4ccc(F)cc4c3C2)CC1)CC(C)C` [Compound 3.1d, N,N-diisobutyl-3-(4-(3-(8-fluoro-1,3,4,5-tetrahydro-1H-pyrido[4,3-b]indol-2-yl)propyl)piperazin-1-yl)propylamine], the CC50 at 24 h in series [1] worked out at 15 µM. In the series on sAPPα, the “sAPPα (10 μM)” value is recorded as 166 arbitrary units.
